Paper PMC10818921, “Validation of Liquid Chromatography Coupled with Tandem Mass Spectrometry for the Determination of 12 Tyrosine Kinase Inhibitors (TKIs) and Their Application to Therapeutic Drug Monitoring in Adult and Pediatric Populations” (Pharmaceutics, 2023)
Read-outs that look alike come from different tables or passages of the source.

What was measured:
[1] = cited from earlier work; for Target Concentrations, Cmax / Target Concentrations, Cmin: adults
[2] = cited from earlier work
[3] = Stability of TKI methanolic solutions, 7 days at −20 °C; type: physicochemical; conditions: for bias, stability of TKI methanolic solutions: QCs made with 7-day-old methanolic solutions; for storage of methanolic working solutions: −20 °C for 7 days
Experimental: To evaluate TKI stability in methanolic solutions, the four QC levels were realized with seven-day-old solutions and were analyzed six times. The accuracy and precision of the samples have to be in conformity with less than 15% variation.

[4] = Therapeutic drug monitoring: steady-state residual plasma concentrations by LC-MS/MS; type: in vivo, human; conditions: for comparison of dose–weight-adjusted concentrations between adult and pediatric groups: Mann–Whitney test, p-value < 0.0001 where significant; for Concentration range CI 95% / IQR / Mean concentration / Median concentration: residual plasma concentration at steady state
Experimental: For each calibration sample, an adapted volume of working solution was added and evaporated. Then, 150 µL of IS methanolic solution was added to 50 µL of plasma sample (blank plasma for calibration sample or patient plasma) to precipitate proteins. After vortex mixing and 10 min of centrifugation, the supernatant was transferred into injection vials, and 10 µL was injected into the chromatographic system.
Chromatography was performed on a Dionex Ultimate 3000 Pump (ThermoFisher, les Ulis, France) using a Kinetex C18 Polar column (100 × 2.1 mm, 2.6 µm particle size) heated at 40 °C. The mobile phase A was made with 2 mM of ammonium formate in 0.1% formic acid in ultra-pure water and stored at +4 °C for a maximum of one week. […] The gradient was set as follows: 10 to 40% of B from 0 to 1 min, then 40 to 90% of B in 1 min, and keeping this for 2 min before resetting to 10% B in 1 min. An equilibration time of one minute at 10% mobile phase B at the end of the chromatographic run allowed the column to be equilibrated before the next analysis.
The compounds were detected using an Altis® triple quadrupole tandem mass spectrometer (ThermoFisher Scientific, Les Ulis, France) equipped with an electrospray ionization (ESI) source set in positive ionization mode with a potential of +3.5 kV. Nitrogen was used as cladding and auxiliary gas at a pressure of 30 and 10 arbitrary units (AU), respectively. The collision gas, argon, was used at a pressure of 1.5 mTorr. The temperature of the ion transfer capillary was set at 350 °C. Data were collected in multiple reaction monitoring mode (MRM) with two transitions (m/z) per compound. Xcalibur® (v 4.2.47) and LC Quan® (v 2.7.0) software (ThermoFisher Scientific) were used for data acquisition and processing.
The study was conducted in accordance with the Declaration of Helsinki and approved by the local ethics committee.
Populations treated with each TKI are described in Table 4.
Blood samples were collected in a steady state (i.e., a minimum of 2 weeks after the initiation of therapy or dose adjustment) just prior to dosing. The samples were collected in lithium heparin tubes without a separator and were immediately centrifuged, decanted, and frozen at −20 °C before LC-MS/MS analysis.
A Mann–Whitney […] was performed to compare dose–weight-adjusted concentrations between adult and pediatric groups. Results are illustrated in box-and-whiskers plots. GraphPad Prism v.8.3.0 Software (San Diego, CA, USA) was used to process and visualize data.

[5] = cited from earlier work; remark: listed apart in the source

| Compound | bias, stability of TKI methanolic solutions [3] [%] | storage of methanolic working solutions [3] | Dose–weight-adjusted mean concentration ([4]; adults) [ng/mL/mg/kg] | Dose–weight-adjusted median concentration ([4]; adults) [ng/mL/mg/kg] | Concentration range CI 95% ([4]; adults) | IQR ([4]; adults) | Mean concentration ([4]; adults) [ng/mL] | Median concentration ([4]; adults) [ng/mL] | Dose–weight-adjusted mean concentration ([4]; children) [ng/mL/mg/kg] | Dose–weight-adjusted median concentration ([4]; children) [ng/mL/mg/kg] | Concentration range CI 95% ([4]; children) | IQR ([4]; children) | Mean concentration ([4]; children) [ng/mL] | Median concentration ([4]; children) [ng/mL] | Target Concentrations, Cmax [1] | Target Concentrations, Cmin [1] | comparison of dose–weight-adjusted concentrations between adult and pediatric groups [4] | other results |
| --- | --- | --- | --- | --- | --- | --- | --- | --- | --- | --- | --- | --- | --- | --- | --- | --- | --- | --- |
| C[C@H]1Oc2cc(cnc2N)-c2c(nn(C)c2C#N)CN(C)C(=O)c2ccc(F)cc21 [Lorlatinib, lorlatinib] |  |  |  |  |  |  |  |  |  |  |  |  |  |  | Cmax = 575 ng/mL |  |  | stable in plasma ([2]; −30 °C): at least 2 months |
| CCc1cc2c(cc1N1CCC(N3CCOCC3)CC1)C(C)(C)c1[nH]c3cc(C#N)ccc3c1C2=O [Alectinib, alectinib] |  |  | 17.3 | 16.7 | [292–424] ng/mL | [302–408] ng/mL | 358 | 346 |  |  |  |  |  |  |  |  |  |  |
| C=CC(=O)Nc1cc(Nc2nccc(-c3c[nH]c4ccccc34)n2)c(OC)cc1N(C)CCN(C)C [AZ5104] | ≥ 15 | must be prepared extemporaneously | 25.8 | 21.7 | [16–56] ng/mL | [11–47] ng/mL | 32 | 25 |  |  |  |  |  |  |  |  |  |  |
| O=C(c1ccc(F)c(F)c1Nc1ccc(I)cc1F)N1CC(O)([C@@H]2CCCCN2)C1 [Cobimetinib, cobimetinib] |  |  | 145.7 | 138.1 | [24–94] ng/mL | [46.5–83] ng/mL | 59.3 | 70 | 85.4 | 62.6 | [74–118] ng/mL | [34–114] ng/mL | 96.3 | 64.3 | Cmax = 270 ng/mL |  | not statistically different | stable in plasma ([2]; −40 °C): more than 20 weeks |
| Cn1cnc2c(F)c(Nc3ccc(Br)cc3F)c(C(=O)NOCCO)cc21 [Binimetinib, binimetinib] |  |  | 48.8 | 41.6 | [51–64] ng/mL | [38–69] ng/mL | 57.4 | 52 | 17.5 | 14.6 | [37–204] ng/mL | [62–143] ng/mL | 120 | 100 | Cmax = 654 ng/mL |  | higher concentrations of binimetinib in adults | frozen stability in plasma [2]: at least 30 days |

More lines, main results first:

| bias, stability of TKI methanolic solutions [3] [%] | storage of methanolic working solutions [3] | Dose–weight-adjusted mean concentration ([4]; adults) [ng/mL/mg/kg] | Dose–weight-adjusted median concentration ([4]; adults) [ng/mL/mg/kg] | Concentration range CI 95% ([4]; adults) | IQR ([4]; adults) | Mean concentration ([4]; adults) [ng/mL] | Median concentration ([4]; adults) [ng/mL] | Dose–weight-adjusted mean concentration ([4]; children) [ng/mL/mg/kg] | Dose–weight-adjusted median concentration ([4]; children) [ng/mL/mg/kg] | Concentration range CI 95% ([4]; children) | IQR ([4]; children) | Mean concentration ([4]; children) [ng/mL] | Median concentration ([4]; children) [ng/mL] | Compound | Target Concentrations, Cmax [1] | Target Concentrations, Cmin [1] | comparison of dose–weight-adjusted concentrations between adult and pediatric groups [4] | other results |
| --- | --- | --- | --- | --- | --- | --- | --- | --- | --- | --- | --- | --- | --- | --- | --- | --- | --- | --- |
| ≥ 15 | must be prepared extemporaneously |  |  |  |  |  |  |  |  |  |  |  |  | C[C@@H](Oc1cc(-c2cnn(C3CCNCC3)c2)cnc1N)c1c(Cl)ccc(F)c1Cl [Crizotinib, crizotinib] |  | Cmin ≥ 235 ng/mL |  | stability at −20 °C for 7 days ([3]; methanolic solutions, CQ3): not stable; stability in plasma [2]: minimum of one month |
|  |  | 443.8 | 386.3 | [11–13] ng/mL | [8–14] ng/mL | 12.4 | 11 | 578.4 | 538.5 | [11–14] ng/mL | [6.5–17] ng/mL | 12.6 | 9.7 | CC(=O)Nc1cccc(-n2c(=O)n(C3CC3)c(=O)c3c(Nc4ccc(I)cc4F)n(C)c(=O)c(C)c32)c1 [Trametinib, trametinib] |  | Cmin ≥ 10.6 ng/mL | significantly lower in the adult group than in the pediatric group | minimum effective concentrations [1]: 10 ng/mL; serum stability ([2]; −20 °C): 20 months; toxicity reported ([5]; children treated for glioma): signs of cutaneous toxicity; adverse effects described [5]: Skin disorders (acneiform eruptions and rash) |
|  |  | 28.3 | 14 | [88–122] ng/mL | [29–114] ng/mL | 105.3 | 53.5 | 62.3 | 19.1 | [26–178] ng/mL | [15–131] ng/mL | 102.3 | 18.4 | CC(C)(C)c1nc(-c2cccc(NS(=O)(=O)c3c(F)cccc3F)c2F)c(-c2ccnc(N)n2)s1 [Dabrafenib, dabrafenib] |  | Cmin ≥ 15 ng/mL | not statistically different | stable in plasma ([2]; −40 °C): more than 20 weeks; adverse effects described [5]: Skin disorders (acneiform eruptions and rash) |
| ≥ 15 | must be prepared extemporaneously | 196.7 | 211.4 | [122–320] ng/mL |  | 221 | 207 |  |  |  |  |  |  | C=CC(=O)Nc1cc(Nc2nccc(-c3cn(C)c4ccccc34)n2)c(OC)cc1N(C)CCN(C)C [Osimertinib, osimertinib] |  |  |  | Target Concentrations, Cmin ([1]; 40 mg dosage): ≥ 90 ng/mL; Target Concentrations, Cmin ([1]; 80 mg dosage): ≥ 160 ng/mL; stability in plasma [2]: minimum of one month |
|  |  | 3.4 | 2.6 | [16–21] ng/mL | [10–22] ng/mL | 18.6 | 15 |  |  |  |  |  |  | COC(=O)N[C@@H](C)CNc1nccc(-c2cn(C(C)C)nc2-c2cc(Cl)cc(NS(C)(=O)=O)c2F)n1 [Encorafenib, encorafenib] | Cmax = 3100 ng/mL |  |  | frozen stability in plasma [2]: at least 30 days |
